According to US8168644B2, “Quinazolinone derivatives as tubulin polymerization inhibitors” (Janssen Pharmaceutica NV, priority 2008, dated 2012):

Assays:
[1] = system: human prostate cancer PC3 cells; assay: Eb1 cellular assay (Eb1 Comet assay); type: cell-based; settings: 1 hour treatment, LAC = concentration where Eb1 foci absent in at least 50% of treated cells
Protocol: The Eb1 Comet assay relies on the detection of the Eb1 protein at the plus end of polymerizing microtubules (Mimori-Kiyosue, 2000) using indirect immunofluorescence. Disruption of microtubule dynamics through de-polymerization or stabilization results in a de-localization of Eb1 from the growing microtubule ends and this is visualized by the disappearance of Eb1 containing cytoplasmic foci.
Briefly, human prostate cancer PC3 cells obtained from the American Type Culture Collection were grown in 96-well plates (Greiner, cat. no. 655090) in HAM's F12 medium as recommended by the provider (ATCC). The cells were treated for 1 hour at 37° C. with compounds dissolved in DMSO (0.6% final DMSO concentration). The culture medium was then removed by aspiration and the cells were fixed by adding cold methanol (−20° C.). After a 15 minutes incubation at −20° C., the cells were washed twice with DPBS (Gibco) containing 0.5% Triton X-100. Mouse Eb1 antibody (BD Transduction Laboratories, cat. no. 610534) was added to the cells (1/250 dilution in DPBS containing 1% BSA) and incubated overnight at room temperature. The antibody was subsequently removed and the cells washed twice with DPBS, 0.5% Triton X-100. Secondary goat anti-mouse antibody conjugated to Alexa 488 fluorescent dye (Molecular Probes) was added at a 1/500 dilution in DPBS, 1% BSA and incubated for 1 hour at 37° C. The cells were washed twice with DPBS, 0.5% Triton X-100 and then DPBS containing 0.5% Triton X-100 and 1/5000 Hoechst 33342 (Molecular Probes) was added. Microscopy based Eb1 foci visualization was carried out using an IN Cell Analyser 1000 (Amersham Biosciences) using a 20× objective. Compound dependent microtubule disruption was visually determined by the disappearance in Eb1 foci. The lowest active concentration (LAC) was determined as the concentration where Eb1 foci were absent in at least 50% of the treated cells. Herein the effects of test compounds are expressed as pLAC (the negative log value of the LAC-value) (see Table 3).

α-β-Tubulin = α-β-Tubulin polymerization assay; type: biochemical; design: key: a compound showing 0 to 50% inhibition at 20 μM is reported as score 1; Score 2 compounds are defined as compound showing more than 50% inhibition at 20 μM and less than 50% inhibition at 5 μM; a compound showing more than 50% inhibition at 5 μM is reported as score 3; settings: inhibition of polymerization at 20 μM and 5 μM, reported as score
Protocol: The tubulin polymerization assay is an adaptation of an assay originally described by Bonne, D. et al. (J. Biol. Chem., 1985, 260:2819-25). The assay kit was purchased from Cytoskeleton, Inc. (catalogue number BK011) and the assay was performed as described by the supplier with the following modifications. The assay was run in a 384-well black Proxiplate (Perkin Elmer) and volumes were adapted accordingly. The reactions were carried out in a final volume of 10 μl. Compounds were added to 25 μl of the reaction mix in 96-well PP plates (Corning) on ice and 10 μl of this mixture was dispensed into duplicates of the 384-well Proxiplates pre-warmed to 37° C. in a Fluoroskan Ascent plate reader (Thermo Scientific). Fluorescence measurements were taken every minute for one hour. The maximum slope of each well was determined (linear regression through 4 consecutive points) and polymerization was calculated as a percentage of polymerization observed in the absence of compound. Compounds were first measured at a concentration of 20 μM and then at 5 μM for those showing more than 50% inhibition at 20 μM as compared to the polymerization observed in the absence of compound. Results are reported in Table F-2 as scores defined as: a compound showing 0 to 50% inhibition at 20 μM is reported as score 1; a compound showing more than 50% inhibition at 5 μM is reported as score 3.

[2] = system: Human colon carcinoma HCT116 cells; assay: Anti-proliferative effect, Alamar Blue assay, HCT116; type: cell-based; settings: 4-day incubation; for IC50: Homo sapiens, HCT-116, 96 h, read-out: HCT116 antiproliferative activity pIC50 (converted)
Protocol: Human colon carcinoma HCT116 cells obtained from the ATCC were cultured in McCoy's 5A medium supplemented with 2 mM L-Glutamine, 50 μg/ml gentamicin and 10% heat inactivated fetal calf serum.
(§1) Resazurin was purchased from Aldrich (Prod. No. 199303). Potassium ferrocyanide, potassium ferricyanide, KH2PO4 and K2HPO4 were purchased from Sigma (Prod. Nos. P9387, P8131, P5655 and P8281, respectively).
(§2) Potassium Phosphate Buffer 0.1 M (PPB) was made as follows: 2.72 gram KH2PO4 and 13.86 gram K2HPO4 were dissolved in 500 ml milli-Q H2O, the pH was adjusted to pH 7.4 and the volume was brought to 1 liter with milli-Q H2O; the buffer was filter sterilised and stored at room temperature. Resazurin stock solution (PPB-A) was prepared fresh by dissolving 45 mg resazurin in 15 ml PBS. 30 mM potassium ferricyanide (PPB-B) was prepared by dissolving 0.987 gram potassium ferricyanide in 100 ml PPB. 30 mM potassium ferrocyanide (PPB-C) was prepared by dissolving 1.266 gram potassium ferrocyanide in 100 ml PPB.
(§3) Mixture of PPB-A, PPB-B and PPB-C was prepared by mixing equal volumes of the respective solutions. Resazurin work solution (herein termed “Alamar Blue” solution) was prepared by diluting said mixture 20× (vol/vol) in PPB and filter sterilising; the Alamar Blue solution could be kept at 4° C. for a maximum of 2 weeks.
(§4) For experiments in 384 wells plates the cells were seeded at a density of 4.5×10^3 cells/ml in Falcon 384-well culture plates (Life Technologies, Merelbeke, Belgium), black with clear bottom, in 45 μl culture medium. Cells were allowed to adhere to plastic for 24 hours. The tested compound was pre-diluted (1/50 in culture medium) and 5 μl pre-diluted compound was added to the wells. Following 4-day incubation, 10 μl of the Alamar Blue solution was added to each well and the cells were further incubated for 4 hours (HCT116) or 24 hours (PC-3) at 37° C. The fluorescence intensity was measured for each well on a Fluorescence plate reader (Fluoroskan, Labsystems, 540 nm excitation and 590 nm emission)
(§5) The antiproliferative activity was calculated as percentage of remaining viable cells in treated versus control (untreated cells) conditions. Within an experiment, the result for each experimental condition is the mean of 3 replicate wells. When appropriate, the experiments were repeated to establish full concentration-response curves. When appropriate, IC50-values (concentration of the drug, needed to reduce cell growth to 50% of the control) were computed using probit analysis for graded data (Finney, D. J., Probit Analyses, 2nd Ed. Chapter 10, Graded Responses, Cambridge University Press, Cambridge 1962). Herein the effects of test compounds are expressed as pIC50 (the negative log value of the IC50-value) (see Table 3).

[3] = system: Human prostate cancer PC-3 cells; assay: Anti-proliferative effect, Alamar Blue assay, PC-3; type: cell-based; design: key to PC3 antiproliferative activity pIC50: pIC50 = negative log of IC50 (conc. reducing growth to 50% of control); settings: 4-day incubation; for IC50: Homo sapiens, 96 h, read-out: PC3 antiproliferative activity pIC50 (converted)
Protocol: Human prostate cancer PC-3 cells obtained from the ATCC were cultured in HAM'S F12 medium supplemented with 1 mM Sodium Pyruvate, 1.5 g/L Sodium Bicarbonate, 50 μg/ml gentamicin, non-essential amino acids and 10% fetal calf serum.
as §1, §2, §3, §4, §5

| Compound | Eb1 pLAC [1] | tubulin polymerization score (α-β-Tubulin) | IC50 [2] [nM] | IC50 [3] [nM] | melting point [°C] | HCT116 antiproliferative activity pIC50 [2] | PC3 antiproliferative activity pIC50 [3] |
| --- | --- | --- | --- | --- | --- | --- | --- |
| CCN1Cc2ccc(C(C#N)(CC)Cc3cccc(C#N)c3)cc2NC1=O (stereo not drawn) [Compound 2] | 7 | 3 (a compound showing more than 50% inhibition at 5 μM is reported as score 3) | 316 | 316 |  |  |  |
| CCN1Cc2ccc([C@@](C)(C#N)Cc3ccccc3)cc2NC1=O [Compound 3] |  | 1 (a compound showing 0 to 50% inhibition at 20 μM is reported as score 1) | > 10000 | > 10000 | 124 |  |  |
| CCN1Cc2ccc(C(C)(C#N)Cc3cccc(C#CCO)c3)cc2NC1=O (stereo not drawn) [Compound 11] | 7 | 3 (a compound showing more than 50% inhibition at 5 μM is reported as score 3) | 316 | 398 |  |  |  |
| CCN1Cc2ccc(C(C)(C#N)CNCc3ccc(C#N)cc3)cc2NC1=O (stereo not drawn) [Compound 12] |  |  | 631 | 1260 |  |  |  |
| CCN1Cc2ccc([C@](C)(C#N)[C@@H]3CCc4c(Cl)ccnc43)cc2NC1=O [Compound 13] |  |  | 79.4 | 100 | 226 |  |  |
| CCN1Cc2ccc([C@@](C)(C#N)[C@@H]3CCc4c(Cl)ccnc43)cc2NC1=O [Compound 14] |  |  | 501 | 1260 |  |  |  |
| CCN1Cc2ccc(C(C)(C#N)CCOc3ccc(C#N)cc3)cc2NC1=O (stereo not drawn) [Compound 15] |  |  | 100 | 200 |  |  |  |
| CCN1Cc2ccc(C(C)(C#N)Cc3ccccc3)cc2NC1=O (stereo not drawn) [Compound 16] | 6 | 2 |  |  |  | 6.2 | 5.9 |
| CCN1Cc2ccc(C(C)(C#N)Cc3cccc(C#N)c3)cc2NC1=O (stereo not drawn) [Compound 17] |  | 3 (a compound showing more than 50% inhibition at 5 μM is reported as score 3) |  |  |  | 6.8 | 6.6 |
| CCN1Cc2ccc(C(C)(C#N)Cc3nc(OC)cc(OC)n3)cc2NC1=O (stereo not drawn) [Compound 18] |  | 3 (a compound showing more than 50% inhibition at 5 μM is reported as score 3) |  |  |  | 6.6 | 6.6 |
| CCN1Cc2ccc(C(C)(C#N)Cc3cc(OC)cc(OC)c3)cc2NC1=O (stereo not drawn) [Compound 19] | 6.5 | 3 (a compound showing more than 50% inhibition at 5 μM is reported as score 3) |  |  |  | 6.4 | 6.2 |
| CCN1Cc2ccc(C(C)(C#N)Cc3cc(Cl)cc(Cl)c3)cc2NC1=O (stereo not drawn) [Compound 20] | 6.5 |  |  |  |  | 6.4 | 6.2 |
| CCN1Cc2ccc(C(C)(C#N)Cc3cccc(C#N)n3)cc2NC1=O (stereo not drawn) [Compound 21] | 5.5 | 2 |  |  |  | 6.3 | 6.1 |
| CCN1Cc2ccc(C(C)(C#N)Cc3cccc(C)c3)cc2NC1=O (stereo not drawn) [Compound 22] |  |  |  |  |  | 6.7 | 6.4 |
| CCN1Cc2ccc(C(C)(C#N)Cc3nc4ccccc4s3)cc2NC1=O (stereo not drawn) [Compound 23] |  |  |  |  |  | 6.4 | 6.3 |
| CCN1Cc2ccc(C(C)(C#N)Cc3cccc(F)c3)cc2NC1=O (stereo not drawn) [Compound 24] |  |  |  |  |  | 6.8 | 6.6 |
| CCN1Cc2cc(F)c(C(C)(C#N)Cc3nc(OC)cc(OC)n3)cc2NC1=O (stereo not drawn) [Compound 25] | 6.5 | 3 (a compound showing more than 50% inhibition at 5 μM is reported as score 3) |  |  |  | 6.3 | 6.3 |
| CCN1Cc2cc(F)c(C(C)(C#N)Cc3cccc(C#N)c3)cc2NC1=O (stereo not drawn) [Compound 26] | 6.5 | 3 (a compound showing more than 50% inhibition at 5 μM is reported as score 3) |  |  |  | 6.6 | 6.3 |
| CN1Cc2ccc([C@@](C)(C#N)Cc3cccc(C#N)c3)cc2NC1=O [Compound 27] | 6.5 | 3 (a compound showing more than 50% inhibition at 5 μM is reported as score 3) |  |  |  | 7.1 | 6.8 |
| CN1Cc2ccc(C(C)(C#N)Cc3cccc(C#N)c3)cc2NC1=O (stereo not drawn) [Compound 28] | 6.5 | 3 (a compound showing more than 50% inhibition at 5 μM is reported as score 3) |  |  |  | 6.8 | 6.5 |
| CCN1Cc2ccc(C(C#N)(CC)Cc3nc(OC)cc(OC)n3)cc2NC1=O (stereo not drawn) [Compound 30] | 6.5 | 3 (a compound showing more than 50% inhibition at 5 μM is reported as score 3) |  |  |  | 6.4 | 6.0 |
| CCN1Cc2ccc(C(C)(C#N)Cc3cccc(C#CCOC)c3)cc2NC1=O (stereo not drawn) [Compound 36] | 7 | 3 (a compound showing more than 50% inhibition at 5 μM is reported as score 3) |  |  |  | 6.7 | 6.6 |
